Legend:
[1] = Particle size and polydispersity index (PDI) of lipid nanoparticles by dynamic light scattering; format: physicochemical; conditions: LNP formulation of Example 4, cationic lipid/DSPC/cholesterol/DMG-PEG2000 50:10:38.5:1.5; 25° C., 90° scattering angle
Experimental: The particle size and polydispersity index (PDI) were determined by dynamic light scattering using Malvern laser particle size analyzer.
10 μL of the liposome solution was weighed, diluted to 1 mL with RNase-free deionized water, and added to the sample pool. Each sample was measured in triplicate. The measurement conditions were: 90° scattering angle, and 25° C.

293T cells = experiment: Cell survival rate assay (CCK-8); format: cell-based; conditions: 24 hours; for reduction in the cell survival rate compared with YK-009: LNP formulation of Fluc-mRNA
Experimental: Cell recovery and passage: 293T cells were recovered, cultured in a culture dish, and passaged to the required number of cells.
Seeding plate: The cells in the culture dish were digested and counted. Cells were spread in a 96-well plate at 10,000 cells per well and in a 12-well plate at 150,000 cells per well. Cells were cultured overnight until the cells adhered to the wall.
A LNP formulation containing 1.5 μg of Fluc-mRNA (the carrier component of the LNP formulation was cationic lipid, neutral lipid, structured lipid and polymer-conjugated lipid with a molar ratio of 50:10:38.5:1.5, wherein the cationic lipid was listed in Table 1) was added to the cell culture medium of a 96-well plate, and further cultivated for 24 hours. 10 μL of CCK-8 solution was then added to each well, and the culture plate was incubated in an incubator for 1 hour. The absorbance at 450 nm was measured by a microplate reader.
To compare the cytotoxicity of LNP formulations prepared from cationic lipid YK-009 and compound 25, we prepared LNP formulations with Fluc-mRNA contents of 1.5 μg, 1.125 μg, 0.75 μg and 0.375 μg (the carrier components of LNP formulations were cationic lipid, neutral lipid, structured lipid and polymer-conjugated lipid with a molar ratio of 50:10:38.5:1.5, wherein the cationic lipid was YK-009 or compound 25). The assay method of cell survival rate was the same as above.

female BALB/C mice = experiment: Mouse live imaging test of LNP formulations of Fluc-mRNA; format: in vivo; conditions: for expression intensity of Fluc-mRNA in mice over time (in words): 3 h to 72 h after intramuscular injection
Experimental: A LNP formulation containing 10 μg of Fluc-mRNA was intramuscularly injected into female BALB/C mice aged 4-6 weeks and weighing 17-19 g, and at specific time points (3 h, 6 h, 24 h, 48 h and 72 h) after administration, mice were injected intraperitoneally with a fluorescent imaging substrate. The mice moved freely for 5 minutes, and then the average radiation intensity (corresponding to fluorescence expression intensity) of the protein expressed by the mRNA carried by LNP in mice was detected using the IVIS Spectrum small animal live imager.
To compare the protein expression and duration in mice of LNP formulations prepared from cationic lipid YK-009 and compound 25, we prepared LNP formulations with Fluc-mRNA contents of 10 μg, 7.5 μg, 5 μg and 2.5 μg (the carrier components of LNP formulations were cationic lipid, neutral lipid, structured lipid and polymer-conjugated lipid with a molar ratio of 50:10:38.5:1.5, wherein the cationic lipid was YK-009 or compound 25). The mouse live imaging test method was the same as above.

[2] = LNP formulation containing 1.5 μg of Fluc-mRNA
[3] = mRNA transfection, time not stated

Row | SMILES | PDI (%) [1] [%] | Particle size (nm) [1] [nm] | Cell survival rate (%) (293T cells; [2]) | reduction in the cell survival rate compared with YK-009 (293T cells) [%] | expression intensity of Fluc-mRNA in mice over time (in words) (female BALB/C mice) | Cell survival rate (%) (293T cells; Fluc-mRNA content 0.375 μg) | Cell survival rate (%) (293T cells; Fluc-mRNA content 0.75 μg) | Cell survival rate (%) (293T cells; Fluc-mRNA content 1.125 μg) | Cell survival rate (%) (293T cells; Fluc-mRNA content 1.5 μg) | expression in mice, times higher than that for MC3 (female BALB/C mice; [3]) | expression in mice, times higher than that for compound 23 (female BALB/C mice; [3]) [times]
1 | CCCCCCCCCCOC(=O)CCCN(CCO)CCCC(=O)OCC(CCCCCCCC)CCCCCCCC [YK-004, 2-octyldecyl 4-((4-(decyloxy)-4-oxobutyl)(2-hydroxyethyl)amino)butyrate] | 9.7 | 190.65 | 87 | – | – | – | – | – | – | – | –
2 | CCCCCCCCCCOC(=O)CCCN(CCO)CCCCCC(=O)OCC(CCCCCCC)CCCCCCC [YK-010, 2-heptylnonyl 6-((4-(decyloxy)-4-oxobutyl)(2-hydroxyethyl)amino)hexanoate] | 19.8 | 124.46 | 77 | 23 | – | – | – | – | – | – | –
3 | CCCCCCCCCCCOC(=O)CCCN(CCO)CCCCCC(=O)OCC(CCCCCCCC)CCCCCCCC [YK-001, 2-octyldecyl 6-((4-(undecyloxy)-4-oxobutyl) (2-hydroxyethyl)amino)hexanoate] | 10.2 | 164.03 | 85 | – | – | – | – | – | – | – | –
4 | CCCCCCCCCOC(=O)CCCCCCCN(CCO)CCCCCCCCCC(=O)OC(CCCCCCCC)CCCCCCCC [Compound 23, nonyl 8-((2-hydroxyethyl)(10-((9-heptadecyl)oxy)-10-oxodecyl)amino)octanoate, reference compound] | 24.4 | 114.12 | 87 | 13 | decreased rapidly between 6 h and 48 h | – | – | – | – | – | –
5 | CCCCCCCCCCCOC(=O)CCCCCN(CCO)CCCCCC(=O)OCC(CCCCCCCC)CCCCCCCC [YK-007, 2-octyldecyl 6-((2-hydroxyethyl)(6-oxo-6-(undecyloxy)hexyl)amino)hexanoate] | 13.6 | 178.06 | 96 | – | – | – | – | – | – | – | –
6 | CCCCCCCCCCOC(=O)CCCN(CCO)CCCCCC(=O)OCC(CCCCCC)CCCCCC [YK-011, 2-hexyloctyl 6-((4-(decyloxy)-4-oxobutyl)(2-hydroxyethyl)amino)hexanoate] | 21.2 | 173.16 | 98 | – | – | – | – | – | – | – | –
7 | CCCCCCCCCOC(=O)CCCCCCCN(CCO)CCCCCC(=O)OC(CCCCCCCC)CCCCCCCC [Compound 27, nonyl 8-((2-hydroxyethyl)(6-((9-heptadecyl)oxy)-6-oxohexyl)amino)octanoate, reference compound] | 13.6 | 178.85 | 84 | 16 | decreased rapidly between 6 h and 48 h | – | – | – | – | – | –
8 | CCCCCCCCCCCOC(=O)CCCCCN(CCO)CCCCCCCC(=O)OC(CCCCCCCC)CCCCCCCC [Compound 25, reference compound] | 23.1 | 117.10 | – | – | decreased rapidly at 6˜48 h | 99 | 97 | 95 | 91 | – | –
9 | CCCCCCCCCCOC(=O)CCCCN(CCO)CCCCCC(=O)OCC(CCCCCCCC)CCCCCCCC [YK-002, 2-octyldecyl 6-((5-(decyloxy)-5-oxopentyl)(2-hydroxyethyl)amino)hexanoate] | 27.7 | 156.70 | 89 | 11 | – | – | – | – | – | – | –
10 | CCCCCCCCCCOC(=O)CCCN(CCO)CCCCC(=O)OCC(CCCCCCCC)CCCCCCCC [YK-006, 2-octyldecyl 5-((4-(decyloxy)-4-oxobutyl)(2-hydroxyethyl)amino)pentanoate] | 22.9 | 125.35 | 96 | – | – | – | – | – | – | – | –
11 | CCCCCCCCCCOC(=O)CCCCCN(CCO)CCCCCC(=O)OCC(CCCCCCCC)CCCCCCCC [YK-003, 2-octyldecyl 6-((6-(decyloxy)-6-oxohexyl)(2-hydroxyethyl)amino)hexanoate] | 21.3 | 119.91 | 84 | – | highest expression intensity | – | – | – | – | more than 18 times | > 8
12 | CCCCC/C=C\C/C=C\CCCCCCCCC(CCCCCCCC/C=C\C/C=C\CCCCC)OC(=O)CCCN(C)C [MC3, reference compound] | 18.3 | 205.20 | 88 | – | very low at each time | – | – | – | – | – | –
13 | CCCCCCCCCOC(=O)CCCN(CCO)CCCCCC(=O)OCC(CCCCCCCC)CCCCCCCC [YK-008, 2-octyldecyl 6-((4-(nonyloxy)-4-oxobutyl)(2-hydroxyethyl)amino)hexanoate] | 24.4 | 205.00 | 91 | – | – | – | – | – | – | – | –
14 | CCCCCCCCCCOC(=O)CCCN(CCO)CCCCCCCC(=O)OC(CCCCCCCC)CCCCCCCC [YK-005, 9-heptadecyl 8-((4-(decyloxy)-4-oxobutyl)(2-hydroxyethyl)amino)octanoate] | 17.3 | 148.75 | 88 | – | – | – | – | – | – | – | –

Reference: patent publication US12171876B2, “Cationic lipid compound, composition containing same and use thereof” (HANGZHOU TIANLONG PHARMACEUTICAL CO., LTD., priority 2022, dated 2024)
